Consider one molecule from patent US8673947B2, “Enhanced migraine treatments based on ghrelin mimetics” (Helsinn Therapeutics (U.S.), Inc., priority 2009, dated 2014).

The conditions of data set [1]: Imitrex tablets, cited from earlier work.
Data set [2] is described as follows: Pharmacokinetic two period crossover study of oral sumatriptan with or without anamorelin hydrochloride. The data set is classed as in vivo. Particulars: both sexes, human, plasma, 25 mg/dose. The procedure:
The study was a two period crossover study in 22 healthy, normal men and women ages 18-45 years, conducted in open label format. […] Subjects were fasted overnight with a seven day wash out period between periods. […] All samples were analyzed using a validated bioanalytical method (LC-MS-MS).

Like-named read-outs stand apart in the source and are kept apart here.

`CNS(=O)(=O)Cc1ccc2[nH]cc(CCN(C)C)c2c1` [Sumatriptan, 1-[3-(2-dimethylaminoethyl)-1H-indol-5-yl]-N-methyl-methanesulfonamide]: in data set [1] (during a migraine attack), the “time after administration until maximum blood concentrations are reached” value is 2.5 h. Moreover, the “time after administration to reach maximum concentration in the plasma (average)” value in data set [1] (healthy adults) is 2.0 h. The AUC(0-t) in data set [2] (plasma sumatriptan, sumatriptan succinate 25 mg oral tablet, alone or with anamorelin HCl 100 mg oral, fasted healthy subjects, N = 22, read-out: AUC 0-30, Mean) was 2.53 ng·h/mL; in data set [2] (plasma sumatriptan, sumatriptan succinate 25 mg oral tablet, alone or with anamorelin HCl 100 mg oral, fasted healthy subjects, N = 22, read-out: AUC 0-30, Median) it was 2.56 ng·h/mL; in data set [2] (read-out: AUC last, Mean) it was 45.6 ng·h/mL. Moreover, the highest concentration (Cmax) (usually the highest concentration seen after dosing) in data set [2] (plasma sumatriptan, sumatriptan succinate 25 mg oral tablet, alone or with anamorelin HCl 100 mg oral, fasted healthy subjects, N = 22, read-out: Cmax, Mean) is 20.3 ng/mL; in data set [2] (plasma sumatriptan, sumatriptan succinate 25 mg oral tablet, alone or with anamorelin HCl 100 mg oral, fasted healthy subjects, N = 22, read-out: Cmax, Median), 20.4 ng/mL. The time of peak concentration (Tmax) (in general, the time from dosing to the highest level) was 1.12 h in data set [2] (plasma sumatriptan, sumatriptan succinate 25 mg oral tablet, alone or with anamorelin HCl 100 mg oral, fasted healthy subjects, N = 22, read-out: Tmax, Mean (converted)) and 0.883 h in data set [2] (plasma sumatriptan, sumatriptan succinate 25 mg oral tablet, alone or with anamorelin HCl 100 mg oral, fasted healthy subjects, N = 22, read-out: Tmax, Median (converted)).
